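Compound exposure: 48 hours, 5 concentrations, 96-well plates. At the GI50, growth is halved.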 Activity calls are given as the source filed them. No stated cut-off is given here; in the data, active = GI50 up to about 1.1 µM and inactive = higher.
Experiments:
Assay in all cases: DTP human tumour cell line panel, 48 h
[1] = tested on: NCI-H226
[2] = tested on: MDA-N
[3] = tested on: PC-3
[4] = tested on: NCI-H460
[5] = tested on: MCF7
[6] = tested on: SF-268
[7] = tested on: CAKI-1
[8] = tested on: SK-MEL-5
[9] = tested on: CCRF-CEM
[10] = tested on: UO-31
[11] = tested on: Malme-3M
[12] = tested on: SK-MEL-28
[13] = tested on: A498
[14] = tested on: M14
[15] = tested on: SNB-19
[16] = tested on: NCI/ADR-RES
[17] = tested on: HCT-15
[18] = tested on: 786-0
[19] = tested on: OVCAR-3
[20] = tested on: SK-MEL-2
[21] = tested on: MOLT-4
[22] = tested on: MDA-MB-435
[23] = tested on: TK-10
[24] = tested on: BT-549
[25] = tested on: KM12
[26] = tested on: SNB-75
[27] = tested on: SF-295
[28] = tested on: UACC-62
[29] = tested on: SW-620
[30] = tested on: UACC-257
[31] = tested on: NCI-H23
[32] = tested on: A549
[33] = tested on: HOP-62
[34] = tested on: HL-60
[35] = tested on: COLO 205
[36] = tested on: IGROV-1
[37] = tested on: RXF 393
[38] = tested on: T47D
[39] = tested on: ACHN
[40] = tested on: EKVX
[41] = tested on: HCC 2998
[42] = tested on: Hs-578T
[43] = tested on: OVCAR-4
[44] = tested on: U-251
[45] = tested on: K562
[46] = tested on: DU-145
[47] = tested on: NCI-H522
[48] = tested on: HCT-116
[49] = tested on: OVCAR-5
[50] = tested on: HOP-92
[51] = tested on: SK-OV-3
[52] = tested on: MDA-MB-231
[53] = tested on: RPMI-8226
[54] = tested on: OVCAR-8
[55] = tested on: SN12C
[56] = tested on: HT-29
[57] = tested on: SF-539
[58] = tested on: LOX IMVI
[59] = tested on: SR

In the case of `c1cc2c(cc1NC1=NCCO1)CCCC2`, the GI50 [1] is reported as 3.37 µM (inactive), the GI50 [2] is reported as 1.41 µM (inactive) and the GI50 [3] is reported as 3.01 µM (inactive). For the same compound, the GI50 [4] was 3.3 µM (inactive), the GI50 [5] was 0.619 µM (active) and the GI50 [6] was 5.56 µM (inactive). The GI50 [7] was 18.6 µM (inactive), the GI50 [8] was 3.05 µM (inactive) and the GI50 [9] was 2.72 µM (inactive). For the same compound, the GI50 [10] was 6.97 µM (inactive), the GI50 [11] was 6.7 µM (inactive) and the GI50 [12] was 5.19 µM (inactive). The GI50 [13] was 3.76 µM (inactive), the GI50 [14] was 2.88 µM (inactive) and the GI50 [15] was 21.7 µM (inactive). The GI50 [16] was 2.18 µM (inactive), the GI50 [17] was 3.45 µM and the GI50 [18] was 5.07 µM (inactive). The GI50 [19] was 3.51 µM (inactive), the GI50 [20] was 2.97 µM (inactive) and the GI50 [21] was 2.65 µM (inactive). The GI50 [22] was 1.57 µM (inactive), the GI50 [23] was 10.6 µM (inactive) and the GI50 [24] was 13.7 µM (inactive). The GI50 [25] was 2.77 µM (inactive), the GI50 [26] was 2.08 µM (inactive) and the GI50 [27] was 4.02 µM (inactive). For the same compound, the GI50 [28] was 4.11 µM (inactive), the GI50 [29] was 9.73 µM (inactive) and the GI50 [30] was 3.77 µM (inactive). The GI50 [31] was 4.09 µM (inactive), the GI50 [32] was 4.8 µM (inactive) and the GI50 [33] was 2.67 µM (inactive). The GI50 [34] was 2.66 µM (inactive), the GI50 [35] was 1.84 µM (inactive) and the GI50 [36] was 4.37 µM (inactive). For the same compound, the GI50 [37] was 2.67 µM (inactive), the GI50 [38] was 10.6 µM (inactive) and the GI50 [39] was 7.59 µM (inactive). For the same compound, the GI50 [40] was 8.04 µM (inactive), the GI50 [41] was 2.55 µM (inactive) and the GI50 [42] was 4.6 µM (inactive). The GI50 [43] was 10.7 µM (inactive), the GI50 [44] was 4.16 µM (inactive) and the GI50 [45] was 2.45 µM (inactive). For the same compound, the GI50 [46] was 5.08 µM (inactive), the GI50 [47] was 3.52 µM (inactive) and the GI50 [48] was 2.76 µM (inactive). The GI50 [49] was 6.07 µM (inactive), the GI50 [50] was 2.86 µM (inactive) and the GI50 [51] was 4.38 µM (inactive). For the same compound, the GI50 [52] was 2.16 µM (inactive), the GI50 [53] was 2.92 µM (inactive) and the GI50 [54] was 3.66 µM (inactive). The GI50 [55] was 3.56 µM (inactive), the GI50 [56] was 2.62 µM (inactive) and the GI50 [57] was 2.74 µM (inactive). The GI50 [58] was 3.13 µM (inactive).

In the case of `CCOC(=O)Cc1c(C(=O)OCC)[n+]([O-])c2cc(Cl)c(Cl)cc2[n+]1[O-]`, the GI50 [2] is reported as 2.62 µM (inactive), the GI50 [3] is reported as 2.1 µM (inactive) and the GI50 [4] is reported as 1.45 µM (inactive). The GI50 [5] was 1.57 µM (inactive), the GI50 [6] was 2.44 µM (inactive) and the GI50 [7] was 2.97 µM (inactive). The GI50 [8] was 1.47 µM (inactive), the GI50 [9] was 3.13 µM (inactive) and the GI50 [10] was 1.77 µM (inactive). The GI50 [11] was 1.4 µM (inactive), the GI50 [12] was 4.68 µM (inactive) and the GI50 [13] was 2.31 µM (inactive). For the same compound, the GI50 [14] was 2.29 µM (inactive), the GI50 [15] was 3.5 µM (inactive) and the GI50 [16] was 2.78 µM (inactive). For the same compound, the GI50 [17] was 1.42 µM, the GI50 [18] was 1.54 µM (inactive) and the GI50 [19] was 1.87 µM (inactive). For the same compound, the GI50 [20] was 2.59 µM (inactive), the GI50 [21] was 1.56 µM (inactive) and the GI50 [22] was 2.77 µM (inactive). For the same compound, the GI50 [23] was 1.28 µM (inactive), the GI50 [24] was 2.45 µM (inactive) and the GI50 [25] was 1.32 µM (inactive). For the same compound, the GI50 [26] was 1.53 µM (inactive), the GI50 [27] was 3.66 µM (inactive) and the GI50 [28] was 2.18 µM (inactive). The GI50 [29] was 1.52 µM (inactive), the GI50 [30] was 2.22 µM (inactive) and the GI50 [31] was 2.18 µM (inactive). The GI50 [32] was 1.76 µM (inactive), the GI50 [33] was 1.95 µM (inactive) and the GI50 [34] was 2.81 µM (inactive). The GI50 [35] was 1.73 µM (inactive), the GI50 [36] was 1.01 µM (active) and the GI50 [37] was 2.12 µM (inactive). For the same compound, the GI50 [38] was 0.982 µM (active), the GI50 [39] was 1.76 µM (inactive) and the GI50 [40] was 3.37 µM (inactive). For the same compound, the GI50 [41] was 1.99 µM (inactive), the GI50 [42] was 2.27 µM (inactive) and the GI50 [43] was 1.89 µM (inactive). The GI50 [44] was 2.96 µM (inactive), the GI50 [45] was 2.62 µM (inactive) and the GI50 [46] was 1.69 µM (inactive). The GI50 [47] was 1.84 µM (inactive), the GI50 [59] was 0.336 µM (active) and the GI50 [48] was 1.77 µM (inactive). The GI50 [49] was 2.58 µM (inactive), the GI50 [51] was 3.77 µM (inactive) and the GI50 [52] was 2.69 µM (inactive). The GI50 [53] was 0.431 µM (active), the GI50 [54] was 2.34 µM (inactive) and the GI50 [55] was 2.49 µM (inactive). The GI50 [56] was 1.94 µM (inactive), the GI50 [57] was 2.08 µM (inactive) and the GI50 [58] was 2 µM (inactive).
